Measurements published in the CheMixHub viscosity set.
± gives the uncertainty stated by the source.

Test: xn = mol fraction of the nth substance listed

CC(C)CCO + CC(C)CC(C)(C)C
298.15 K, 101 kPa
Settings | viscosity [mPa·s]
x2 = 0.0685 | 3.063 ± 0.08
x2 = 0.1336 | 2.496 ± 0.062
x2 = 0.1409 | 2.428 ± 0.06
x2 = 0.2215 | 1.908 ± 0.045
x2 = 0.2866 | 1.576 ± 0.035
x2 = 0.311 | 1.471 ± 0.033
x2 = 0.352 | 1.326 ± 0.029
x2 = 0.4007 | 1.178 ± 0.025
x2 = 0.4038 | 1.175 ± 0.025
x2 = 0.4505 | 1.051 ± 0.022
x2 = 0.4937 | 0.967 ± 0.02
x2 = 0.5321 | 0.896 ± 0.019
x2 = 0.6132 | 0.772 ± 0.016
x2 = 0.6488 | 0.723 ± 0.015
x2 = 0.7255 | 0.642 ± 0.014
x2 = 0.782 | 0.595 ± 0.013
x2 = 0.818 | 0.564 ± 0.013
x2 = 0.857 | 0.544 ± 0.013
x2 = 0.9105 | 0.512 ± 0.012
x2 = 0.9545 | 0.494 ± 0.012

CCOCCO + CC(C)CC(C)(C)C
viscosity [mPa·s], 101.33 kPa
Settings | x1 = 0.0991 | x1 = 0.1991 | x1 = 0.2975 | x1 = 0.4347 | x1 = 0.4972 | x1 = 0.6001 | x1 = 0.6976 | x1 = 0.7979 | x1 = 0.8986
298.15 K | 0.494 ± 0.014 | 0.536 ± 0.015 | 0.595 ± 0.016 | 0.692 ± 0.018 | 0.753 ± 0.019 | 0.862 ± 0.022 | 1.006 ± 0.025 | 1.179 ± 0.029 | 1.436 ± 0.034
303.15 K | 0.466 ± 0.013 | 0.5 ± 0.014 | 0.552 ± 0.015 | 0.648 ± 0.017 | 0.694 ± 0.018 | 0.797 ± 0.02 | 0.913 ± 0.023 | 1.086 ± 0.027 | 1.292 ± 0.031
308.15 K | 0.439 ± 0.013 | 0.475 ± 0.013 | 0.517 ± 0.014 | 0.601 ± 0.016 | 0.642 ± 0.017 | 0.738 ± 0.019 | 0.839 ± 0.021 | 0.993 ± 0.025 | 1.167 ± 0.028
313.15 K | 0.415 ± 0.012 | 0.445 ± 0.013 | 0.483 ± 0.014 | 0.56 ± 0.015 | 0.597 ± 0.016 | 0.677 ± 0.018 | 0.767 ± 0.02 | 0.901 ± 0.023 | 1.066 ± 0.026

CC(C)CCO + CC(C)CO
viscosity [mPa·s], 101 kPa
Settings | x1 = 0.2 | x1 = 0.4 | x1 = 0.6 | x1 = 0.8
293.15 K | 4.048 ± 0.04 | 4.099 ± 0.04 | 4.163 ± 0.041 | 4.241 ± 0.041
313.15 K | 2.178 ± 0.024 | 2.22 ± 0.024 | 2.27 ± 0.025 | 2.326 ± 0.025

CC(C)CCO + CC(C)O
298.15 K, 101 kPa
Settings | viscosity [mPa·s]
x1 = 0.0665 | 2.158 ± 0.026
x1 = 0.095 | 2.195 ± 0.051
x1 = 0.1475 | 2.277 ± 0.054
x1 = 0.1504 | 2.279 ± 0.029
x1 = 0.2352 | 2.411 ± 0.058
x1 = 0.2364 | 2.41 ± 0.033
x1 = 0.3228 | 2.562 ± 0.063
x1 = 0.3304 | 2.572 ± 0.039
x1 = 0.4092 | 2.707 ± 0.069
x1 = 0.4193 | 2.736 ± 0.045
x1 = 0.5069 | 2.896 ± 0.076
x1 = 0.5352 | 2.948 ± 0.054
x1 = 0.6126 | 3.093 ± 0.085
x1 = 0.6388 | 3.125 ± 0.063
x1 = 0.7326 | 3.271 ± 0.096
x1 = 0.7853 | 3.365 ± 0.077
x1 = 0.8525 | 3.477 ± 0.11
x1 = 0.9466 | 3.651 ± 0.12

CCOCCO + CC(C)O
viscosity [mPa·s], 101.33 kPa
Settings | x1 = 0.1024 | x1 = 0.2002 | x1 = 0.301 | x1 = 0.4035 | x1 = 0.5037 | x1 = 0.6022 | x1 = 0.6984 | x1 = 0.8009 | x1 = 0.9017
298.15 K | 1.858 ± 0.012 | 1.764 ± 0.012 | 1.703 ± 0.011 | 1.692 ± 0.011 | 1.682 ± 0.012 | 1.693 ± 0.012 | 1.711 ± 0.012 | 1.756 ± 0.012 | 1.773 ± 0.012
303.15 K | 1.614 ± 0.011 | 1.54 ± 0.01 | 1.495 ± 0.01 | 1.49 ± 0.01 | 1.491 ± 0.01 | 1.504 ± 0.01 | 1.518 ± 0.011 | 1.566 ± 0.011 | 1.575 ± 0.011
308.15 K | 1.404 ± 0.009 | 1.356 ± 0.009 | 1.324 ± 0.009 | 1.325 ± 0.009 | 1.329 ± 0.009 | 1.34 ± 0.009 | 1.36 ± 0.01 | 1.398 ± 0.01 | 1.413 ± 0.01
313.15 K | 1.233 ± 0.008 | 1.19 ± 0.008 | 1.17 ± 0.008 | 1.176 ± 0.008 | 1.19 ± 0.008 | 1.203 ± 0.009 | 1.217 ± 0.009 | 1.259 ± 0.009 | 1.267 ± 0.009

CNC(C)=O + CC(C)O
303.15 K, 101 kPa
Settings | viscosity [mPa·s]
x1 = 0.11 | 1.922 ± 0.051
x1 = 0.2078 | 2.005 ± 0.053
x1 = 0.3061 | 2.099 ± 0.055
x1 = 0.3988 | 2.217 ± 0.059
x1 = 0.4962 | 2.377 ± 0.063
x1 = 0.5547 | 2.49 ± 0.066
x1 = 0.6962 | 2.824 ± 0.075
x1 = 0.8005 | 3.115 ± 0.083
x1 = 0.8927 | 3.418 ± 0.091

CCOCCO + CCC(C)=O
298.15 K, 101 kPa
Settings | viscosity [mPa·s]
x2 = 0.1219 | 1.479 ± 0.01
x2 = 0.2381 | 1.178 ± 0.008
x2 = 0.3488 | 0.948 ± 0.007
x2 = 0.4545 | 0.767 ± 0.005
x2 = 0.5555 | 0.609 ± 0.004
x2 = 0.6521 | 0.524 ± 0.004
x2 = 0.7446 | 0.457 ± 0.003
x2 = 0.8333 | 0.419 ± 0.003
x2 = 0.9183 | 0.387 ± 0.003

Cc1ccc(NC(=O)NCCCCCCCCCCCCCCC(C)C)cc1NC(=O)NCCCCCCCCCCCCCCC(C)C + CCCCC
Settings | viscosity [mPa·s]
293.15 K, 100 kPa, x1 = 0.0001 | 2 ± 0.1

CC(CC(C)(C)C)CP(=O)(O)CC(C)CC(C)(C)C (centres undefined) + CCCCCC
298.15 K, 101 kPa
Settings | viscosity [mPa·s]
x1 = 0.0033 | 0.305 ± 0.004
x1 = 0.0159 | 0.36 ± 0.005
x1 = 0.0175 | 0.368 ± 0.005
x2 = 0.0987 | 89.32 ± 1.3
x2 = 0.1765 | 69.68 ± 0.89
x2 = 0.2746 | 47.91 ± 0.58
x2 = 0.4476 | 23.62 ± 0.29
x2 = 0.642 | 9.432 ± 0.12
x2 = 0.7262 | 5.982 ± 0.073
x2 = 0.73 | 5.931 ± 0.073
x2 = 0.796 | 3.39 ± 0.042
x2 = 0.8384 | 2.461 ± 0.031
x2 = 0.8555 | 2.122 ± 0.026
x2 = 0.9097 | 1.221 ± 0.015
x2 = 0.9111 | 1.203 ± 0.015
x2 = 0.9623 | 0.504 ± 0.007

CCCCCCCCCCOC(C)=O + CCCCCC
303.15 K, 101.3 kPa
Settings | viscosity [mPa·s]
x1 = 0.2001 | 0.4713 ± 0.0034
x1 = 0.4057 | 0.7528 ± 0.0053
x1 = 0.5086 | 0.9289 ± 0.0065
x1 = 0.5995 | 1.116 ± 0.0079
x1 = 0.7551 | 1.473 ± 0.011

CCOCCO + CCCCCC
viscosity [mPa·s], 101.33 kPa
Settings | x1 = 0.0967 | x1 = 0.1963 | x1 = 0.2958 | x1 = 0.394 | x1 = 0.4948 | x1 = 0.5958 | x1 = 0.6979 | x1 = 0.7955 | x1 = 0.8993
298.15 K | 0.335 ± 0.01 | 0.376 ± 0.011 | 0.433 ± 0.013 | 0.504 ± 0.014 | 0.595 ± 0.016 | 0.716 ± 0.019 | 0.875 ± 0.022 | 1.087 ± 0.027 | 1.452 ± 0.035
303.15 K | 0.318 ± 0.01 | 0.357 ± 0.011 | 0.406 ± 0.012 | 0.472 ± 0.013 | 0.554 ± 0.015 | 0.663 ± 0.018 | 0.803 ± 0.021 | 0.987 ± 0.025 | 1.315 ± 0.032
308.15 K | 0.303 ± 0.01 | 0.339 ± 0.011 | 0.385 ± 0.012 | 0.443 ± 0.013 | 0.517 ± 0.014 | 0.615 ± 0.017 | 0.741 ± 0.019 | 0.907 ± 0.023 | 1.199 ± 0.029
313.15 K | 0.29 ± 0.009 | 0.322 ± 0.01 | 0.361 ± 0.011 | 0.415 ± 0.012 | 0.484 ± 0.014 | 0.573 ± 0.016 | 0.686 ± 0.018 | 0.829 ± 0.021 | 1.083 ± 0.027

CCOCCO + CCCCCCC
viscosity [mPa·s], 101.33 kPa
Settings | x1 = 0.1091 | x1 = 0.1973 | x1 = 0.299 | x1 = 0.4 | x1 = 0.5014 | x1 = 0.6074 | x1 = 0.6986 | x1 = 0.799 | x1 = 0.8989
298.15 K | 0.422 ± 0.012 | 0.455 ± 0.013 | 0.51 ± 0.014 | 0.585 ± 0.016 | 0.671 ± 0.018 | – | 0.922 ± 0.023 | 1.12 ± 0.027 | 1.39 ± 0.033
303.15 K | 0.398 ± 0.012 | 0.428 ± 0.012 | 0.478 ± 0.014 | 0.541 ± 0.015 | 0.619 ± 0.017 | 0.673 ± 0.018 | 0.843 ± 0.021 | 1.013 ± 0.025 | 1.247 ± 0.03
308.15 K | 0.377 ± 0.011 | 0.404 ± 0.012 | 0.449 ± 0.013 | 0.506 ± 0.014 | 0.574 ± 0.016 | 0.63 ± 0.017 | 0.772 ± 0.02 | 0.927 ± 0.023 | 1.133 ± 0.028
313.15 K | 0.355 ± 0.011 | 0.382 ± 0.011 | 0.422 ± 0.012 | 0.472 ± 0.013 | 0.535 ± 0.015 | 0.592 ± 0.016 | 0.713 ± 0.019 | 0.844 ± 0.021 | 1.026 ± 0.025
